Measurements from article PMC7377239, “Cardiovascular Effects of Polychlorinated Biphenyls and Their Major Metabolites” (Environmental Health Perspectives, 2020).
Read-outs that look alike come from different tables or passages of the source.

Tests used:
[1] = system: iCell endothelial cells (human iPSC-derived ECs); experiment: Tube formation (tubulogenesis) assay in iCell endothelial cells, 18 h; assay type: cell-based; settings: Homo sapiens, Endothelial cell, iPSC-EC tube formation, 18 hr; for activity at 0.1 µM: 0.10 µM; for minimal effective concentration: top concentration 100.00 µM
Outline: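 Tube formation was measured by calcein AM imaging after overnight compound exposure (37°C, 0.5% DMSO vehicle) of human iPSC-derived ECs, 7,500/well, on reduced-growth-factor Geltrex in starvation medium. Vehicle-normalized data fitted to four-parameter logistic; POD set at one vehicle SD; without response, 100 μM taken as NOAEL.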

[2] = system: HUVECs; experiment: Tube formation (tubulogenesis) assay in HUVECs, 18 h; assay type: cell-based, human; settings: Homo sapiens, HUVEC, 18 h, HUVECs; for activity at 0.1 µM: 0.10 µM; for minimal effective concentration: top concentration 100.00 µM
Outline: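 HUVECs (passage 1–5) seeded on reduced-growth-factor basement membrane and exposed to compounds overnight at 37°C, 5% CO2, in 2× maintenance medium with 12.5 ng/mL VEGF; 0.5% DMSO vehicle. Calcein AM-stained tube networks imaged and analysed; vehicle-normalized readouts fit to four-parameter logistic, POD set at one SD of vehicle means.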

[3] = 0.00 µM control = 100.00, read-out: endo.mtl.18hr
[4] = 0.00 µM control = 100.00, read-out: endo.tlps.18hr
[5] = 0.00 µM control = 100.00, read-out: endo.tta.18hr
[6] = 0.00 µM control = 100.00, read-out: endo.ttl.18hr
[7] = 0.00 µM = 100.00, read-out: huvec.mtl.18hr
[8] = 0.00 µM = 100.00, read-out: huvec.tlps.18hr
[9] = 0.00 µM = 100.00, read-out: huvec.tta.18hr
[10] = 0.00 µM = 100.00, read-out: huvec.ttl.18hr

Clc1ccc(-c2ccccc2)cc1 [PCB3]
activity at 0.01 µM [1, 3]: 114%
activity at 0.01 µM [1, 4]: 108%
activity at 0.01 µM [1, 5]: 123%
activity at 0.01 µM [1, 6]: 120%
activity at 0.1 µM [1, 3]: 106%
activity at 0.1 µM [1, 4]: 111%
activity at 0.1 µM [1, 5]: 102%
activity at 0.1 µM [1, 6]: 98.7%
activity at 1 µM [1, 3]: 119%
activity at 1 µM [1, 4]: 171%
activity at 1 µM [1, 5]: 126%
activity at 1 µM [1, 6]: 123%
activity at 10 µM [1, 3]: 118%
activity at 10 µM [1, 4]: 103%
activity at 10 µM [1, 5]: 109%
activity at 10 µM [1, 6]: 111%
activity at 100 µM [1, 3]: 107%
activity at 100 µM [1, 4]: 113%
activity at 100 µM [1, 5]: 93.3%
activity at 100 µM [1, 6]: 95.4%
minimal effective concentration ([1]; read-out: endo.mtl.18hr POD): 100 µM
minimal effective concentration ([1]; read-out: endo.tlps.18hr POD): 100 µM
minimal effective concentration ([1]; read-out: endo.tta.18hr POD): 100 µM
minimal effective concentration ([1]; read-out: endo.ttl.18hr POD): 100 µM
activity at 0.01 µM [2, 7]: 96.2%
activity at 0.01 µM [2, 8]: 59.5%
activity at 0.01 µM [2, 9]: 68%
activity at 0.01 µM [2, 10]: 71.6%
activity at 0.1 µM [2, 7]: 97.7%
activity at 0.1 µM [2, 8]: 91.8%
activity at 0.1 µM [2, 9]: 96.2%
activity at 0.1 µM [2, 10]: 104%
activity at 1 µM [2, 7]: 87%
activity at 1 µM [2, 8]: 74.7%
activity at 1 µM [2, 9]: 76.6%
activity at 1 µM [2, 10]: 81.5%
activity at 10 µM [2, 7]: 96.7%
activity at 10 µM [2, 8]: 74.2%
activity at 10 µM [2, 9]: 62%
activity at 10 µM [2, 10]: 66.4%
activity at 100 µM [2, 7]: 70.8%
activity at 100 µM [2, 8]: 39.1%
activity at 100 µM [2, 9]: 26%
activity at 100 µM [2, 10]: 28%
minimal effective concentration ([2]; read-out: huvec.mtl.18hr POD): 25.3 µM
minimal effective concentration ([2]; read-out: huvec.tlps.18hr POD): 100 µM
minimal effective concentration ([2]; read-out: huvec.tta.18hr POD): 0.67 µM
minimal effective concentration ([2]; read-out: huvec.ttl.18hr POD): 0.7 µM
